Assays:
[1] = target: NmeNTR, Neisseria meningitidis MC58 nitroreductase (NfnB homolog, Q9K022), wild type, SEQ ID NO: 1 (Neisseria meningitidis, UniProt Q9K022); test: CB1954 nitroreductase activity, HPLC, purified His-tagged NmeNTR; type: biochemical; details: CB1954, cofactor NADH; 37° C., pH 7.0
Text: Genes encoding homologs of E. coli NfnB and Bacillus amyloliquefaciens YwrO from several bacteria were cloned into an E. coli expression vector for screening (see Methods below). These were the NfnB homolog from Neisseria meningitidis MC58 (‘NmeNTR’, accession number Q9K022), the NfnB homolog from Haemophilus somnus 129PT (‘HsoNTR’, accession number ZP_00122352.1), the NfnB homolog from Burkholderia fungorum LB400 (‘BfuNTR’, accession number ZP_00029570.1), the YwrO homolog from Vibrio cholerae (‘VchYwrO’, accession number Q9KNX3), the YwrO homolog from Rhodobacter sphaeroides (‘RspYwrO’, accession number ZP_00007082.1), and two YwrO homologs from Pseudomonas aeruginosa (‘PaeYwrO1’, accession number Q9HUJ0; and ‘PaeYwrO2’, accession number Q9I4B3).
For determination of CB1954 nitroreductase kinetic parameters, six-histidine affinity-tagged enzymes were purified from cell lysates purified using a Novagen His-Bind kit in accordance with the manufacturer's instructions.
CB1954 nitroreductase activity was determined essentially as described by Anlezark (6). Reaction mixtures containing 500 μM NADH or NADPH and a small quantity of enzyme (either crude lysate or purified enzyme) were assembled in pre-warmed (to 37° C.) 100 mM sodium phosphate buffer (pH 7.0), and started with the addition of 100 μM CB1954 and prompt mixing.
To determine initial reaction rates during preliminary screening of CB1954 nitroreductase candidates, aliquots of the reaction mixtures taken at various times were injected into a Partisphere SCX (100×4.7 mm) HPLC column and eluted isocratically at 2 ml/min with 130 mM NaH2PO4 (pH 5.0). Eluates were continuously monitored at 260 nm and 325 nm, and the absorbance spectra of eluting components recorded using a photodiode array detector. Peaks were identified with reference to standards and/or by their known absorbance spectra (7) and anticipated column retention times as appropriate. Rates were determined based on the decrease in the area under the CB1954 peak over time, normalised to the known starting concentration of 100 μM using the peak from the zero timepoint sample.
To determine initial reaction rates and CB1954 nitroreduction products in later experiments with purified proteins, peaks were identified as before, and rates were determined based on the increase in the area under the 4-hydroxylamine derivative peak over time, normalised using enzymatically-synthesised 4-hydroxylamine standards.
NmeNTR and HsoNTR were each affinity-tagged, over-expressed, purified, and the CB1954 nitroreductase activities of the purified proteins characterized using the HPLC assay. The reaction products and kinetic parameters of these enzymes with respect to CB1954 and NADH were determined (Table 1). […] Moreover, the kinetic parameters of HsoNTR and NmeNTR differ dramatically from those of E. coli NfnB and other published enzymes (Table 1). […] NmeNTR would therefore approach saturation with CB1954 in a therapeutic regime using the maximum clinically-recommended dose, so the prodrug would be efficiently activated and high levels of tumour-specific cytotoxicity achieved.

[2] = tested on: E. coli NfnB variant N71S/F124K; details: Searle et al., 2004 and Race et al., 2007, cited from earlier work

Sequence of NmeNTR, Neisseria meningitidis MC58 nitroreductase (NfnB homolog, Q9K022), wild type, SEQ ID NO: 1 (Q9K022 entry or part of it): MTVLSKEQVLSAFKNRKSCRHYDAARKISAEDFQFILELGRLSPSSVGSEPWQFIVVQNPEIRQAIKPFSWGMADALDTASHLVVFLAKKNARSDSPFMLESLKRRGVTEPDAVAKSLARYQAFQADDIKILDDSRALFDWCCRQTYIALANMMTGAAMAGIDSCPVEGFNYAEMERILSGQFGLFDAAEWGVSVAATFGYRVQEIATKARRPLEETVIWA

## NC(=O)c1cc(N2CC2)c([N+](=O)[O-])cc1[N+](=O)[O-] [CB1954, 5-(aziridin-1-yl)-2,4-dinitrobenzamide]
[1]
  Kcat: 4.04 (NADH) S^−1
[2]; CB1954
  Kcat: 7.5 S^−1
[2]; read-out: Km^CB1954
  Km: 170 µM

Source: patent publication US10183062B2, “Treatment for cancer” (The University of Nottingham, priority 2013, dated 2019)
